This is an account of results in patent US9511058B2, “Methods for using carboxamide, sulfonamide and amine compounds” (Rigel Pharmaceuticals, Inc., priority 2010, dated 2016).

Structures can show the parent of a compound that is named as a salt. A value given as a limit tells only on which side of the number the result lay.

In one test the target is AMPK. Put plainly: AMPK activation, enzyme-linked immunosorbent assay. Type of test: biochemical. Conditions: compounds of Table 1 (Table 6).
One may read the EC50 as the concentration that produces a half-maximal response. The compound `O=C(NC1CCN(Cc2ccncc2)CC1)c1ccc(OC2CCN(c3ccc(C(F)(F)F)cc3)CC2)cn1` [1-3, N-(1-(pyridin-4-ylmethyl)piperidin-4-yl)-5-(1-(4-(trifluoromethyl)phenyl)piperidin-4-yloxy)picolinamide] yielded an EC50 of under 0.1 µM.
The same measure, in the same setting: the same measure for `N#Cc1ccc(CN2CCC(Oc3ccc4oc(C(=O)NC5CCN(Cc6ccccc6)CC5)cc4c3)CC2)cc1` [1-70, N-(1-benzylpiperidin-4-yl)-5-(1-(4-cyanobenzyl)piperidin-4-yloxy)benzofuran-2-carboxamide]: under 0.1 µM; for `CN(C(=O)c1cc2cc(OC3CCN(c4ccc(C(F)(F)F)cc4)CC3)ccc2o1)C1CCNCC1` [1-103, N-methyl-N-(piperidin-4-yl)-5-(1-(4-(trifluoromethyl)phenyl)piperidin-4-yloxy)benzofuran-2-carboxamide]: 1 to 5 µM.
The same measure, in the same setting: the same measure for `N#Cc1ccc(CN2CCC(Oc3ccc4oc(C(=O)NC5CCN(Cc6ccccc6)CC5)cc4c3)CC2)cc1` [1-114, N-(1-benzylpiperidin-4-yl)-5-(1-(4-cyanobenzyl)piperidin-4-yloxy)benzofuran-2-carboxamide]: 0.1 to 0.5 µM.
Same read-out and setting: the same measure for `N#Cc1ccc(CN2CCC(NC(=O)c3cc4ccc(OC5CCN(c6ccc(C(F)(F)F)cc6)CC5)cc4s3)CC2)cc1` [1-144, N-(1-(4-cyanobenzyl)piperidin-4-yl)-6-(1-(4-(trifluoromethyl)phenyl)piperidin-4-yloxy)benzo[b]thiophene-2-carboxamide]: under 0.1 µM.
Compound `O=C(NC1CCN(C(=O)c2ccncc2)CC1)c1cc2cc(OC3CCN(c4ccc(C(F)(F)F)cc4)CC3)ccc2o1` [1-115, N-(1-isonicotinoylpiperidin-4-yl)-5-(1-(4-(trifluoromethyl)phenyl)piperidin-4-yloxy)benzofuran-2-carboxamide] gave a concentration for a half-maximal effect (EC50) of under 0.1 µM.
On the same count and under the same terms, the same measure for `O=C(NC1CCN(Cc2cccnc2)CC1)c1ccc(OC2CCN(c3ccc(C(F)(F)F)cc3)CC2)cn1` [1-5, N-(1-(pyridin-3-ylmethyl)piperidin-4-yl)-5-(1-(4-(trifluoromethyl)phenyl)piperidin-4-yloxy)picolinamide]: under 0.1 µM; for `O=C(NC1CCN(Cc2cccnc2)CC1)c1cc2ccc(OC3CCN(c4ccc(OC(F)(F)F)cc4)CC3)cc2o1` [1-95, N-(1-(pyridin-3-ylmethyl)piperidin-4-yl)-6-(1-(4-(trifluoromethoxy)phenyl)piperidin-4-yloxy)benzofuran-2-carboxamide]: under 0.1 µM.
Still for that read-out and setting: the same measure for `O=C(NC1CCNCC1)c1sc2cc(OC3CCN(c4ccc(C(F)(F)F)cc4)CC3)ccc2c1Cl` [1-148, 3-chloro-N-(piperidin-4-yl)-6-(1-(4-(trifluoromethyl)phenyl)piperidin-4-yloxy)benzo[b]thiophene-2-carboxamide]: over 10 µM.
Still for that read-out and setting: the same measure for `CN(C(=O)c1cc2cc(OC3CCN(c4ccc(C(F)(F)F)cc4)CC3)ccc2o1)C1CCN(Cc2ccc(C(F)(F)F)cc2)CC1` [1-119, N-methyl-N-(1-(4-(trifluoromethyl)benzyl)piperidin-4-yl)-5-(1-(4-(trifluoromethyl)phenyl)piperidin-4-yloxy)benzofuran-2-carboxamide]: under 0.1 µM; for `CN(C)c1ccc(CN2CCC(NC(=O)c3ccc(OC4CCN(c5ccc(C(F)(F)F)cc5)CC4)cn3)CC2)cc1` [1-39, N-(1-(4-(dimethylamino)benzyl)piperidin-4-yl)-5-(1-(4-(trifluoromethyl)phenyl)piperidin-4-yloxy)picolinamide]: 0.1 to 0.5 µM.
On to `CC(C)(C)OC(=O)NCCCNC(=O)c1ccc(OC2CCN(c3ccc(C(F)(F)F)cc3)CC2)cn1` [1-49, tert-butyl 3-(5-(1-(4-(trifluoromethyl)phenyl)piperidin-4-yloxy)picolinamido) propylcarbamate], for which the EC50 is under 0.1 µM.

The test is the same for the next values; noted with them: compounds of Table 1 (Table 6), formate salt.
Consider `O=C(NC1CCN(Cc2ccncc2)CC1)c1cc2cc(OC3CCN(c4ccc(C(F)(F)F)cc4)CC3)ccc2o1` [1-105, N-(1-(pyridin-4-ylmethyl)piperidin-4-yl)-5-(1-(4-(trifluoromethyl)phenyl)piperidin-4-yloxy)benzofuran-2-carboxamide, formate salt], for which the EC50 is under 0.1 µM.

The test is the same for the next values; noted with them: compounds of Table 2 (Table 7).
With `O=C(NC1CCN(S(=O)(=O)c2ccc(Cl)cc2)CC1)c1ccc2[nH]c3c(c2c1)CN(Cc1ccc(C(F)(F)F)cc1)CC3` [2-32, N-(1-(4-chlorophenyl-sulfonyl)piperidin-4-yl)-2-(4-(trifluoro-methyl)benzyl)-2,3,4,5-tetrahydro-1H-pyrido [4,3-b]indole-8-carboxamide], the EC50 was in the range of 1 to 5 µM.

Staying with this test, now noted: compounds of Table 3 (Table 8).
In the case of `O=C(c1nc2ccc(OC3CCN(c4ccc(C(F)(F)F)cc4)CC3)cc2o1)N1CC2CC1CN2Cc1ccncc1` (stereo not drawn) [3-8, (5-(pyridin-4-ylmethyl)-2,5-diazabicyclo[2.2.1]heptan-2-yl)(6-(1-(4-(trifluoromethyl)phenyl)piperidin-4-yloxy)benzo[d]oxazol-2-yl)methanone], the EC50 was in the range of 0.1 to 1 µM.
With `N#Cc1ccc(CN2CCC(NC(=O)c3cnc(OC4CCN(Cc5ccc(C(F)(F)F)cc5)CC4)s3)CC2)cc1` [3-25, N-(1-(4-cyanobenzyl)piperidin-4-yl)-2-(1-(4-(trifluoromethyl)benzyl)piperidin-4-yloxy)thiazole-5-carboxamide], the EC50 is under 0.1 µM.

Staying with this test, now noted: compounds of Table 4 (Table 9).
Consider `O=C(N[C@H]1CCN(Cc2ccc(F)cc2)C1)c1ccc(C(=O)N2CCN(c3ccc(Cl)cc3)CC2)cn1` [4-4, (S)-5-(4-(4-chlorophenyl)piperazine-1-carbonyl)-N-(1-(4-fluorobenzyl)pyrrolidin-3-yl)picolinamide], for which the EC50 is 1 to 5 µM.

Still in this test, the particulars now being: compounds of Table 5 (Table 10).
`N#Cc1ccc(CN2CCC(Oc3c(Cl)cc(C(=O)NC4CCN(Cc5ccccc5)CC4)cc3Cl)CC2)cc1` [5-77, N-(1-benzylpiperidin-4-yl)-3,5-dichloro-4-(1-(4-cyanobenzyl)piperidin-4-yloxy)benzamide] had an EC50 of under 1 µM.
Still for that read-out and setting: the same measure for `Cc1ccc(CN2CCC(Oc3ccc(C(=O)NC4CCN(Cc5ccccc5)CC4)cc3F)CC2)cc1` [5-42, N-(1-benzylpiperidin-4-yl)-3-fluoro-4-(1-(4-methylbenzyl)piperidin-4-yloxy)benzamide]: under 1 µM.
Same read-out and setting: the same measure for `O=C(NC1CCN(Cc2ccccc2)CC1)c1ccc(OC2CCN(Cc3ccncc3)CC2)c(Cl)c1` [5-6, N-(1-benzylpiperidin-4-yl)-3-chloro-4-(1-(pyridin-4-ylmethyl)piperidin-4-yloxy)benzamide]: under 1 µM; for `O=C(NCCCN1CCOCC1)c1ccc(OC2CCN(Cc3ccc(Cl)cc3)CC2)cc1` [5-100, 4-(1-(4-chlorobenzyl)piperidin-4-yloxy)-N-(3-morpholinopropyl)benzamide]: 1 to 10 µM.
The same measure, in the same setting: the same measure for `N#Cc1ccc(CN2CCC(Oc3ccc(C(=O)NC4CCN(Cc5ccccc5)CC4)cc3F)CC2)cc1` [5-41, N-(1-benzylpiperidin-4-yl)-4-(1-(4-cyanobenzyl)piperidin-4-yloxy)-3-fluorobenzamide]: under 1 µM; for `O=C(NC1CCN(Cc2ccncc2)CC1)c1cccc(OC2CCN(c3ccc(C(F)(F)F)cc3)CC2)c1` [5-87, N-(1-(pyridin-4-ylmethyl)piperidin-4-yl)-3-(1-(4-(trifluoromethyl)phenyl)piperidin-4-yloxy)benzamide]: under 1 µM; for `O=C(NC1CCN(Cc2ccccc2)CC1)c1ccc(OC2CCN(Cc3ccc(OC(F)(F)F)cc3)CC2)c(F)c1` [5-57, N-(1-benzylpiperidin-4-yl)-3-fluoro-4-(1-(4-(trifluoromethoxy)benzyl)piperidin-4-yloxy)benzamide]: under 1 µM.
